From patent US6369030B1, “Inhibitors of histone acetyltransferases (HATs) and uses thereof” (The Rockfeller University, priority 1999, dated 2002)
Where “and” joins values, the source holds several entries; their conditions need not be identical. Equal entries are not always repeated. Where two headings read alike, the source gives them in different places. Residues, ends and D or L forms follow the SMILES beside them. *: point of attachment. CoASCH2CO = CC(C)(COP(=O)(O)OP(=O)(O)OC[C@H]1O[C@@H](n2cnc3c(N)ncnc32)[C@H](O)[C@@H]1OP(=O)(O)O)[C@@H](O)C(=O)NCCC(=O)NCCSCC(=O)*

Experiments:
p300 [1] = target: T1, p300 (Homo sapiens, UniProt Q09472); experiment: HAT activity inhibition assay, p300, mixed histones as substrate; format: biochemical
T1 construct: Full length PCAF and p300 proteins were prepared and purified according to previously described methods; made in house
T1 sequence (Q09472 whole entry): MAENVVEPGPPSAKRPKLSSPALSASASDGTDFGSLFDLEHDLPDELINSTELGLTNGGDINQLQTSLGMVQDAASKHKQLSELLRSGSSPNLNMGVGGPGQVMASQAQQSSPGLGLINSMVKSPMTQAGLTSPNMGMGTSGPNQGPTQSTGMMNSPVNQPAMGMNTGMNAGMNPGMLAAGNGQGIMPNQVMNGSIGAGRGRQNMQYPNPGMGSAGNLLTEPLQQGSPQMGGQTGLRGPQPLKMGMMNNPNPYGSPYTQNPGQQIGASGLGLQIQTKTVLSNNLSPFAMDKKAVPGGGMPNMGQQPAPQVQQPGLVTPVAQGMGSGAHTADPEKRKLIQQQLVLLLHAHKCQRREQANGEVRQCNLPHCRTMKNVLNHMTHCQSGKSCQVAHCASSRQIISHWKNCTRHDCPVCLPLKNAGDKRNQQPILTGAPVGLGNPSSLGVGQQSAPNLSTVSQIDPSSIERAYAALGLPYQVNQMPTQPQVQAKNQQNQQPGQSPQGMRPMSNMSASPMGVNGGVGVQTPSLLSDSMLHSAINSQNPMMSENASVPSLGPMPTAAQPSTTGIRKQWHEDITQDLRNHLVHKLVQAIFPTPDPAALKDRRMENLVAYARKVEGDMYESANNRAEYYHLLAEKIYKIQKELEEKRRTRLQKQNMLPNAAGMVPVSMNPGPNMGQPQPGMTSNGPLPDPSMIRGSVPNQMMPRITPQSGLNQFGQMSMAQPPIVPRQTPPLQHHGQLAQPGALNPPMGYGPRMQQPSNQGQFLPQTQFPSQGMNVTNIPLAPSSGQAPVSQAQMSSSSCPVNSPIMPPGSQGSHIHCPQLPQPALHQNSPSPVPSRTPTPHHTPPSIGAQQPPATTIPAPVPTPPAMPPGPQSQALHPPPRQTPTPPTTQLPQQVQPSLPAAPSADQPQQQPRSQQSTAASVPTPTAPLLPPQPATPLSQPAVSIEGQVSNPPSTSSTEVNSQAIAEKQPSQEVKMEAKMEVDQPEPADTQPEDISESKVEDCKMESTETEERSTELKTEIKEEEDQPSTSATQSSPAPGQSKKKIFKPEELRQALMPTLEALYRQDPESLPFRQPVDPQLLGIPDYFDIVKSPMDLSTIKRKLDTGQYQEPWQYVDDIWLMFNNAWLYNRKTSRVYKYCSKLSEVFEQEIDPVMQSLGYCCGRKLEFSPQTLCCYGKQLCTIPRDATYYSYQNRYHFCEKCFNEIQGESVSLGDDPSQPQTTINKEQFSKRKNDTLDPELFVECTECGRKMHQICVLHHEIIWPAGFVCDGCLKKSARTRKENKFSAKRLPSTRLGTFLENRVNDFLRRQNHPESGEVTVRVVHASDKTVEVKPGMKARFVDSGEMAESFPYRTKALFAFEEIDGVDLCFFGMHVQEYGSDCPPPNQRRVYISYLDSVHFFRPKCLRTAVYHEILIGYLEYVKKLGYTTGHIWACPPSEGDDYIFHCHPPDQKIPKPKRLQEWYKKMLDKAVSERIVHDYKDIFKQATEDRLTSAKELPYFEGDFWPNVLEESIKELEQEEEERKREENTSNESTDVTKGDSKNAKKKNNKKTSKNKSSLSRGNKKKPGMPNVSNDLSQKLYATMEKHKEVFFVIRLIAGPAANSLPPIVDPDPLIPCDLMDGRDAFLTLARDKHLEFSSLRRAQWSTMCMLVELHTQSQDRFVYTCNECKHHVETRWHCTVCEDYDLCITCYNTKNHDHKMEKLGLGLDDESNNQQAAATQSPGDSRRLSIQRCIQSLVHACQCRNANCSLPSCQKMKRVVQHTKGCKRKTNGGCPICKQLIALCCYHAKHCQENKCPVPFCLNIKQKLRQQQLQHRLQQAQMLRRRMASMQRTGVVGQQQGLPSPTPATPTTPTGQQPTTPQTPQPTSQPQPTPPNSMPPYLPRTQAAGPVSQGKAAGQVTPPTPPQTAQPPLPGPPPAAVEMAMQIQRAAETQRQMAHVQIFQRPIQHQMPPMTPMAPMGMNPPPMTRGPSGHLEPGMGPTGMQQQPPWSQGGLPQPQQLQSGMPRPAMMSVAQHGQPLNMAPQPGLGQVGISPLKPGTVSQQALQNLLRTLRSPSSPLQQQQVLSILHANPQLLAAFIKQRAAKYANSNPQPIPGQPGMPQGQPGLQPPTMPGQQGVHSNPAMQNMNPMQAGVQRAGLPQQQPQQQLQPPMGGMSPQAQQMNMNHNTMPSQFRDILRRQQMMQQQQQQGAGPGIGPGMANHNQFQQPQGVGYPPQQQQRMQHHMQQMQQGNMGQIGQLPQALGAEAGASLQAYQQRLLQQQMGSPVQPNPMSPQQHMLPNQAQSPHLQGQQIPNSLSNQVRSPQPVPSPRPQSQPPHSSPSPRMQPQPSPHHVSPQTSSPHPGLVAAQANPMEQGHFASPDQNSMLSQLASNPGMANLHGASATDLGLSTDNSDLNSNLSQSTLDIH
Procedure: (§1) Screening of the peptide CoA conjugate for inhibition of HAT activity of PCAF and p300 was carried out according to standard HAT assay procedures (Ogryzko et al., 1996; Yang et al., 1996; Schiltz et al., 1999) using commercially available mixed calf histone substrates. […] Full length PCAF and p300 proteins were prepared and purified according to previously described methods (Schiltz et al., 1999). HAT inhibition assay procedures were adapted from previously described methods (gryzko et al., 1996; Yang et al., 1996; Schiltz et al., 1999). Briefly, substrate concentrations were 10 μM acetyl-CoA (NEN, ^14C, 0.02 μCi/μL), 33 μg/mL mixed histones (Boehringer); buffer conditions-50 mM Tris-HCl (pH 8), 10 mM sodium butyrate 1 mM phenylmethyl sulfonyl fluoride, 1 mM dithiothreitol, 0.1 mM N,N,N′,N′-ethylenediamine tetraacetic acid and 10% v/v glycerol. Reactions employed purified recombinant p300 and PCAF (Schiltz et al., 1999) at concentrations of 6 nM and 27 nM, respectively. A range of at least 5 inhibitor concentrations were used. Assays were carried out in 0.5 mL plastic tubes at 30° C. and the reaction volumes were 30 μL. Reactions were initiated with the radioactive acetyl-CoA (4 μL) after allowing the enzyme/buffer/histone/inhibitor mixture to equilibrate at 30° C. for 10 min, and reactions quenched after 1 min with 7.5 μL 5×SDS gel load. Mixtures were run out on 15% SDSPAGE visualized with Coomassie blue, dried, and radioactivity quantified by phosphorimage analysis (Molecular Dynamics). In all cases, background acetylation (in the absence of enzyme) was subtracted from the total signal.

PCAF [2] = target: T2, PCAF (Homo sapiens, UniProt Q92831); experiment: HAT activity inhibition assay, PCAF, mixed histones as substrate; format: biochemical; details: for IC50: [acetyl-CoA]=10 M, [mixed histones]=33 μg/mL, standard errors estimated ±20%
T2 construct: Full length PCAF and p300 proteins were prepared and purified according to previously described methods; made in house
T2 sequence (Q92831 whole entry): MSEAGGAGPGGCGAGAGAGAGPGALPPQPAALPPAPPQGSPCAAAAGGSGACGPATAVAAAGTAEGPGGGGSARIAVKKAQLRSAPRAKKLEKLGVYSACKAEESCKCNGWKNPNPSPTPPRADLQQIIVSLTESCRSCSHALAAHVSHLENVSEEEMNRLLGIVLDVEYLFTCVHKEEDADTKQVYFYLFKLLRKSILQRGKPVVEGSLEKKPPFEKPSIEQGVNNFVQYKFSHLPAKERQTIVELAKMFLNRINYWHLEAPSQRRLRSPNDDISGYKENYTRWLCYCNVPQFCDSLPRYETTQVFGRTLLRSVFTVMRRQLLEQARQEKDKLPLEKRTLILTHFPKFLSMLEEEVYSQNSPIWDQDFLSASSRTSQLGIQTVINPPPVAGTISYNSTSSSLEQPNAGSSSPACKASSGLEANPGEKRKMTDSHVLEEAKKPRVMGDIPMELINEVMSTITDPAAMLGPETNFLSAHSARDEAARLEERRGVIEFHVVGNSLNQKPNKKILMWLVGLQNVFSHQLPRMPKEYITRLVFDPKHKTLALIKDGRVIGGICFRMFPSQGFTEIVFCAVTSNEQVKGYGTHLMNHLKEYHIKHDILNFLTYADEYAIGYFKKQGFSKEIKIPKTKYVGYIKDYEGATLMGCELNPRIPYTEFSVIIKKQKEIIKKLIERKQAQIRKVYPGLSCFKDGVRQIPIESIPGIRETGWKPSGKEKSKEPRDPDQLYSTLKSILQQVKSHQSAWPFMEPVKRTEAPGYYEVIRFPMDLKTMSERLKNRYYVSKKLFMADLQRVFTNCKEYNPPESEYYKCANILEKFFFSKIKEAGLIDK
Procedure: as §1

[3] = test system: p300 and acetyl-CoA dependent transcription from chromatin template; experiment: In vitro chromatin-template transcription dependent on p300 HAT activity; format: biochemical, human
Procedure: (§4) FIG. 4B and C: Transcription from naked DNA and chromatin templates. DNA (28 ng) and freshly assembled chromatin templates (with an equivalent amount of DNA) were incubated with or without activator, Gal4-VP16 (30 ng) for 20 min at 30° C.; 25 ng of baculovirus expressed, highly purified p300 (full length) and 1.5 μM of acetyl-CoA were added as indicated. Following the addition of nuclear extract (source of general transcription factors) and NTPs, transcription reactions were incubated and processed as described.
The chromatin template was reconstituted by incubation of purified proteins (HeLa core histones, NAP1 and rh TopoI) with a 5.4 kb plasmid (p20855G5MLC2AT) that contains a 690 bp promoter region (5 Gal4 binding sites and the adenovirus major late promoter with a G-less cassette) flanked on both sides by the 5 nucleosome positioning sequence from the sea urchin 55 rRNA gene (Cote et al., 1995). Assembled chromatin was structurally characterized by supercoiling and micrococcal nuclease (MNase) assay (data not shown).
Chromatin template for transcription studies were assembled on a ˜5.4 kb plasmid (p2085S G5MLC2AT) with purified human core histones, rh TpopI, and NAP1 as described (T. K. K. et al., manuscript in preparation). Prior to use in the transcription experiment, assembled, chromatin was subjected to supercoiling and Mnase assay. […]

p300 [4] = target: T1, p300; experiment: HAT inhibition assay, p300, nucleosomes as substrate; format: biochemical; details: inhibitor 20 μM
Procedure: (§2) Full length PCAF and p300 proteins were prepared and purified according to previously described methods (Schiltz et al., 1999). HAT inhibition assay procedures were adapted from previously described methods (gryzko et al., 1996; Yang et al., 1996; Schiltz et al., 1999). […] Reactions employed purified recombinant p300 and PCAF (Schiltz et al., 1999) at concentrations of 6 nM and 27 nM, respectively. A range of at least 5 inhibitor concentrations were used. Assays were carried out in 0.5 mL plastic tubes at 30° C. and the reaction volumes were 30 μL. Reactions were initiated with the radioactive acetyl-CoA (4 μL) after allowing the enzyme/buffer/histone/inhibitor mixture to equilibrate at 30° C. for 10 min, and reactions quenched after 1 min with 7.5 μL 5×SDS gel load. Mixtures were run out on 15% SDSPAGE visualized with Coomassie blue, dried, and radioactivity quantified by phosphorimage analysis (Molecular Dynamics). In all cases, background acetylation (in the absence of enzyme) was subtracted from the total signal.
(§3) 3) FIG. 3. Assessment of p300 and PCAF HAT Activities in p300/PCAF Mixtures. (A) p300 and PCAF HAT activities with mixed histones as substrates.

naked DNA transcription = experiment: In vitro transcription from naked DNA template; format: biochemical; details: 10 μM inhibitor; average of 4 independent experiments
Procedure: as §4
Recombinant His6-tagged nucleosome assembly protein 1 (NAP1) and transcription activator Gal4-VP16 were expressed in E. coli and purified with nitrilloacetic acid-agarose (Qiagen) as specified by the manufacturer. […] In vitro transcription assays were carried out in 50 μL reaction mixtures containing either 28 ng of DNA or an equivalent amount of chromatin.
(A) Outline of the in vitro transcription protocol. (B) and (C) Transcription form naked DNA and chromatin templates. DNA (28 ng) and freshly assembled chromatin templates (with an equivalent amount of DNA) were incubated with or without activator, Gal4-VP16 (30 ng) for 20 min at 30°, 25 ng of baculovirus expressed, highly purified p300 (full length) and 1.5 μM of acetyl-CoA were added as indicated. […]

PCAF [5] = target: T2, PCAF; format: biochemical; details: nucleosomes as substrate, inhibitor 20 μM
Procedure: as §2, §3

[6] = [acetyl-CoA]=10 M, [mixed histones]=33 μg/mL, standard errors estimated ±20%, read-out: IC50 with p300
[7] = mixed histones, individual enzyme, inhibitor 20 μM

Compound	inhibition of p300 HAT activity, in words (p300 [1]; mixed histones)	IC50 (PCAF [2]) [nM]	inhibition of PCAF HAT activity, in words (PCAF [2]; mixed histones)	IC50 (p300 [1]; [6])	selectivity in blocking p300 HAT activity (versus PCAF) (p300 [1]) [fold]	IC50 (p300 [1]; mixed calf histone substrates, read-out: IC50 of p300 acetyltransferase activity) [nM]	p300 HAT activity blocked (p300 [1]; [7])	transcriptional activation from chromatin template in the presence of p300-PCAF mixtures ([3]; p300-PCAF mixtures, data not shown)	inhibition of p300 and acetyl-CoA dependent transcription activation from the chromatin template ([3]; p300 preincubated with 10 μM inhibitor)	p300 inhibition (nucleosome acetylation) (p300 [4])	inhibition of naked DNA transcription (naked DNA transcription)	PCAF inhibition (nucleosome acetylation) (PCAF [5])	inhibition with PCAF (PCAF [2]; [7])
CC(C)(COP(=O)(O)OP(=O)(O)OC[C@H]1O[C@@H](n2cnc3c(N)ncnc32)[C@H](O)[C@@H]1OP(=O)(O)O)[C@@H](O)C(=O)NCCC(=O)NCCS [CoASH, reference compound]	Neither the H3-20 peptide (which lacked CoA attachment) nor CoASH itself were potent HAT inhibitors	> 20000	Neither the H3-20 peptide (which lacked CoA attachment) nor CoASH itself were potent HAT inhibitors	–	–	–	–	–	–	–	–	–	–
CC(=O)NCC(=O)NCC(=O)N[C@@H](CCCCNC(=O)CSCCNC(=O)CCNC(=O)[C@H](O)C(C)(C)COP(=O)(O)OP(=O)(O)OC[C@H]1O[C@@H](n2cnc3c(N)ncnc32)[C@H](O)[C@@H]1OP(=O)(O)O)C(=O)N[C@@H](C)C(=O)N1CCC[C@H]1C(=O)N[C@@H](CCCNC(=N)N)C(=O)N[C@@H](CCCCN)C(N)=O [Compound H3-CoA-7] (Ac-GGK(CoASCH2CO)APRK-NH2)	–	> 20000	not achieved	> 30000 nM	–	–	–	–	–	–	–	–	–
CC(=O)N[C@@H](CCCCNC(=O)CSCCNC(=O)CCNC(=O)[C@H](O)C(C)(C)COP(=O)(O)OP(=O)(O)OC[C@H]1O[C@@H](n2cnc3c(N)ncnc32)[C@H](O)[C@@H]1OP(=O)(O)O)C(N)=O [Lys-CoA]	–	~200000	–	~500 nM and 500 nM	~200	~500	greater than 90%	abolished transcriptional activation	completely abolished	greater than 90%	15-20%	less than 10%	less than 10%
